# Results reported in article PMC9791819 (Biochemistry and Biophysics Reports, 2022).
# How the values were obtained:
# BiEngA = biological target: T1, BiEngA (Bifidobacterium longum, UniProt A0ACD7UKP5); assay: isothermal titration calorimetry; type: binding; settings: 10 mM Tris pH 8.0, 300 mM NaCl, 50 mM MgCl2, 25 °C
# T1 sequence (A0ACD7UKP5 222-709 limits assumed): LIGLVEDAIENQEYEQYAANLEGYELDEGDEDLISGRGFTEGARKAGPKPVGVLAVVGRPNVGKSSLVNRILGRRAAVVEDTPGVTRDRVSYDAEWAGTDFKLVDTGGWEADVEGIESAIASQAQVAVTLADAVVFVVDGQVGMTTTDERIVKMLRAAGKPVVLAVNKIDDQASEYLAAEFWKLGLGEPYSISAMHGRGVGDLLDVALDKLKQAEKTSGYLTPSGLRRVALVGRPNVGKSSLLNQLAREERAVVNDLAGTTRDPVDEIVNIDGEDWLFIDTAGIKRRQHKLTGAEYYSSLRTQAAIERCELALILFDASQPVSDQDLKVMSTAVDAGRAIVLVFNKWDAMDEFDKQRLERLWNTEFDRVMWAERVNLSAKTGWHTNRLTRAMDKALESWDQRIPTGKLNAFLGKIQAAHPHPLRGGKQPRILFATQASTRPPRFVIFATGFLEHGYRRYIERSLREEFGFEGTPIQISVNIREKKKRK
# BiCMKEngA = biological target: T2, BiCMKEngA (Bifidobacterium longum, UniProt A0ACD7UKP5); assay: isothermal titration calorimetry; type: binding; settings: 10 mM Tris pH 8.0, 300 mM NaCl, 50 mM MgCl2, 25 °C; with or without 1 mM CMP
# T2 sequence (A0ACD7UKP5 1-709): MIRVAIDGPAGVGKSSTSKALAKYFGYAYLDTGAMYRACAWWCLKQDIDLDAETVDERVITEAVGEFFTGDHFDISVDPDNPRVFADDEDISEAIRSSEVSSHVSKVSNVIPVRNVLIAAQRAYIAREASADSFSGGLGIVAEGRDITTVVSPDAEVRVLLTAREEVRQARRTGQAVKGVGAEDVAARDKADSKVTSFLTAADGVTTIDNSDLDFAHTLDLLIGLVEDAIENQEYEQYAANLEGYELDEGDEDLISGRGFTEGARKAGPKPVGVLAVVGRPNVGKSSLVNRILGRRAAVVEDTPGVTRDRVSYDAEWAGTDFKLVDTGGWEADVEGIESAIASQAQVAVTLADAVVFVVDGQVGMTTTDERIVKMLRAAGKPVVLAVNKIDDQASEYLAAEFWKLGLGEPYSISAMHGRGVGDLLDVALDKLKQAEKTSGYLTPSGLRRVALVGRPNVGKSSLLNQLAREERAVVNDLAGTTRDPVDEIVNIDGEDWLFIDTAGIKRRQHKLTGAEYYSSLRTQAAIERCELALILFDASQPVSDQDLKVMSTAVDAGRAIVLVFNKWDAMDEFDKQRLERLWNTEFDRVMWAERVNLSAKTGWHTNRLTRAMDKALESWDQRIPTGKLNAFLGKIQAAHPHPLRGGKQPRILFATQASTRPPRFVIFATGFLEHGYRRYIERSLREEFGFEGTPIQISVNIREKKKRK
Compound,KD (BiEngA),KD (BiCMKEngA)
Nc1nc2c(ncn2[C@@H]2O[C@H](COP(=O)(O)OP(=O)(O)OP(=O)(O)O)[C@@H](O)[C@H]2O)c(=O)[nH]1 [GTP],"the KD values for GTP, as determined from ITC experiments, were of the similar order",
Nc1ncnc2c1ncn2[C@@H]1O[C@H](COP(=O)(O)OP(=O)(O)OP(=O)(O)O)[C@@H](O)[C@H]1O [ATP],,Relative dissociation constants of the full length and individual domains for ATP and GTP
